pEC50, pIC50: −log10 of the molar value. Where two headings read alike, the source gives them in different places. Square brackets hold non-standard residues; d marks the D form. Peptide text beside a SMILES is read from it. * marks the point of attachment. ξ: configuration not given here. Piperidin1yl(4-NH2,4-CO2Me) = COC(=O)C1(N)CCN(*)CC1; Pyrrolidinyl(3-NH2,3-CO2Me) = COC(=O)C1(N)CCN(*)C1; Pyrrolidino(3-NH2-3-COOH) = NC1(C(=O)O)CCN(*)C1; dAla(cPr) = N[C@H](CC1CC1)C(=O)O; Tic = O=C(O)[C@@H]1Cc2ccccc2CN1; dTic = O=C(O)[C@H]1Cc2ccccc2CN1; Aic = NC1(C(=O)O)Cc2ccccc2C1; ξL = CC(C)CC(N)C(=O)O
Tests used:
[1] = target: recombinant human mu (MOR) opioid receptor (Homo sapiens (Human), UniProt P35372); assay: Opioid receptor radioligand binding assay, MOR
[2] = target: recombinant human delta (DOR) opioid receptor (Homo sapiens (Human), UniProt P41143); assay: Opioid receptor radioligand binding assay, DOR
Sequence of recombinant human delta (DOR) opioid receptor (P41143 whole entry, looked up): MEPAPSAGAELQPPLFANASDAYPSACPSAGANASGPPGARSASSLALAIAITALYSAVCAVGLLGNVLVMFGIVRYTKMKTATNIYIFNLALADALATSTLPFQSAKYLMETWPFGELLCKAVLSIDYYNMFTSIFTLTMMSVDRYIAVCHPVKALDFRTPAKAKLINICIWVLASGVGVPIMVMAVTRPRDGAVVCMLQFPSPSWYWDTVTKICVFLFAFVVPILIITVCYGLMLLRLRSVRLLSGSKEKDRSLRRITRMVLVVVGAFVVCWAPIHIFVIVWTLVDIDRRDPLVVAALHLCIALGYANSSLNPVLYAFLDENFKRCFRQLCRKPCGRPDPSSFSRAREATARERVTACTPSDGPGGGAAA

[3] = target: recombinant human kappa (KOR) opioid receptor (Homo sapiens (Human), UniProt P41145); assay: biochemical; assay type: binding; settings: HEK293 cell membranes, 0.5 nM [3H]diprenorphine
[4] = target: Opioid Kappa Receptor (recombinant human, HEK293 cells) (Homo sapiens (Human), UniProt P41145); assay: cell-based; settings: read-out: EC50
[5] = HEK293 cell membranes, 0.5 nM [3H]DAMGO, read-out: MOR, IC50
[6] = HEK293 cell membranes, 0.5 nM [3H]DADLE, read-out: DOR, IC50

| Structure (SMILES) | pIC50 [1] | pIC50 [2] | pIC50 [3] | pEC50 [4] | pIC50 [1, 5] | pIC50 [2, 6] |
| --- | --- | --- | --- | --- | --- | --- |
| CC(C)C[C@@H](NC(=O)[C@@H](Cc1ccccc1)NC(=O)[C@H](N)Cc1ccccc1)C(=O)N[C@H](CCCCN)C(=O)NCc1ccc2c(c1)OCO2 [Compound 13-1] | 5.68 | < 5.00 | 8.71 | 7.37 |  |  |
| COCCNC(=O)[C@@H](CCCCN)NC(=O)[C@@H](CC(C)C)NC(=O)[C@@H](Cc1ccccc1)NC(=O)[C@H](N)Cc1ccccc1 [Compound 13-2] |  |  | 8.86 | 8.08 | < 5.00 | < 5.00 |
| COCCN(CCOC)C(=O)[C@@H](CCCCN)NC(=O)[C@@H](CC(C)C)NC(=O)[C@@H](Cc1ccccc1)NC(=O)[C@H](N)Cc1ccccc1 [Compound 13-3] |  |  | 7.55 |  | < 5.00 | < 5.00 |
| CC(C)C[C@@H](NC(=O)[C@@H](Cc1ccccc1)NC(=O)[C@H](N)Cc1ccccc1)C(=O)N[C@H](CCCCN)C(=O)NCc1cccc(C(=O)O)n1 [Compound 13-6] |  |  |  | 7.52 |  |  |
| CC(C)C[C@@H](NC(=O)[C@@H](Cc1ccccc1)NC(=O)[C@H](N)Cc1ccccc1)C(=O)N[C@H](CCCCN)C(=O)NCc1ccncc1O [Compound 13-11] |  |  | 9.04 |  | < 5.00 | < 5.00 |
| CC(C)C[C@@H](NC(=O)[C@@H](Cc1ccccc1)NC(=O)[C@H](N)Cc1ccccc1)C(=O)N[C@H](CCCCN)C(=O)N1CCN(C(=O)/C=C/C(=O)O)CC1 [Compound 13-25] |  |  | 8.25 |  | < 5.00 | < 5.00 |
| CC(C)C[C@@H](NC(=O)[C@@H](Cc1ccccc1)NC(=O)[C@H](N)Cc1ccccc1)C(=O)N[C@H](CCCCN)C(=O)N1CCC(NC(=O)C(N)=O)CC1 [Compound 13-33] |  |  | 9.27 |  | < 5.00 | < 5.00 |
| CC(C)C[C@@H](NC(=O)[C@@H](Cc1ccccc1)NC(=O)[C@H](N)Cc1ccccc1)C(=O)N[C@H](CCCCN)C(=O)NC1CCN(C(=O)C(=O)NC2CC2)CC1 [Compound 13-37] |  |  | 7.96 |  | 5.03 | < 5.00 |
| CC(C)C[C@@H](NC(=O)[C@@H](Cc1ccccc1)NC(=O)[C@H](N)Cc1ccccc1)C(=O)N[C@H](CCCCN)C(=O)NCCC[C@H](N)C(=O)O [Compound 13-44] |  |  |  | 8.32 |  |  |
| CC(C)C[C@@H](NC(=O)[C@@H](Cc1ccccc1)NC(=O)[C@H](N)Cc1ccccc1)C(=O)N[C@H](CCCCN)C(=O)N1CCC2(CC1)CNC(=O)N2 [Compound 13-46] |  |  | 9.51 |  | < 5.00 | < 5.00 |
| CCCN(C(=O)OC)C1CCN(C(=O)[C@@H](CCCCN)NC(=O)[C@@H](CC(C)C)NC(=O)[C@@H](Cc2ccccc2)NC(=O)[C@H](N)Cc2ccccc2)CC1 [Compound 13-49] |  |  | 9.34 |  | < 5.00 | < 5.00 |
| CC(C)C[C@@H](NC(=O)[C@@H](Cc1ccccc1)NC(=O)[C@H](N)Cc1ccccc1)C(=O)N[C@H](CCCCN)C(=O)N1CCC(NC(=O)C(N)=O)CC1 [Compound 13-57] |  |  |  |  |  | < 5.00 |
| CC(C)C[C@@H](NC(=O)[C@@H](Cc1ccccc1)NC(=O)[C@H](N)Cc1ccccc1)C(=O)N[C@H](CCCCN)C(=O)N1CCC(O)(CO)CC1 [Compound 13-65] |  |  |  | 8.77 |  |  |
| COC(=O)C1(N)CCN(C(=O)[C@@H](CCCNC(=N)N)NC(=O)[C@H]2CCCN2C(=O)[C@@H](Cc2ccccc2)NC(=O)[C@H](N)Cc2ccccc2)CC1 [Compound 22] (H-[dF][dF][dP][dR]-{Piperidin1yl(4-NH2,4-CO2Me)}) |  |  | 6.70 |  | 5.30 | < 5.00 |
| COC(=O)C1(N)CCN(C(=O)[C@@H](CCCNC(=N)N)NC(=O)[C@H]2CCCN2C(=O)[C@@H](Cc2ccccc2)NC(=O)[C@H](N)Cc2ccccc2)C1 (stereo partly shown) [Compound 28] (H-[dF][dF][dP][dR]-{Pyrrolidinyl(3-NH2,3-CO2Me)}) |  |  | < 6.70 |  | < 5.00 | < 5.00 |
| CCCC[C@@H](NC(=O)[C@@H](Cc1ccccc1)NC(=O)[C@H](N)Cc1ccccc1)C(=O)N[C@H](Cc1cnc(N)nc1)C(=O)N1CCC(N)(C(=O)OC)C1 (stereo partly shown) [Compound 82] |  |  | 7.37 |  | 5.29 | < 5.00 |
| COC(=O)C1(N)CCN(C(=O)[C@@H](CCCCN)NC(=O)[C@H]2CCCN2C(=O)[C@@H](Cc2ccccc2)NC(=O)[C@H](N)Cc2ccccc2)CC1 [Compound 89] (H-[dF][dF][dP][dK]-{Piperidin1yl(4-NH2,4-CO2Me)}) |  |  | < 6.70 |  | < 5.00 | < 5.00 |
| COC(=O)C1(N)CCN(C(=O)[C@@H](CCCCN)NC(=O)[C@H]2CCCN2C(=O)[C@@H](Cc2ccccc2)NC(=O)[C@H](N)Cc2ccccc2)C1 (stereo partly shown) [Compound 92] (H-[dF][dF][dP][dK]-{Pyrrolidinyl(3-NH2,3-CO2Me)}) |  |  | 7.48 |  | < 5.00 | < 5.00 |
| NCCCC[C@@H](NC(=O)[C@@H](CC1CC1)NC(=O)[C@@H](Cc1ccccc1)NC(=O)[C@H](N)Cc1ccccc1)C(=O)N1CCC(N)(C(=O)O)C1 (stereo partly shown) [Compound 119] (H-[dF][dF][dAla(cPr)][dK]-{Pyrrolidino(3-NH2-3-COOH)}) |  |  | 8.63 | 7.64 |  |  |
| N=C(N)NCCC[C@@H](NC(=O)[C@@H](CC1CC1)NC(=O)[C@@H](Cc1ccccc1)NC(=O)[C@H](N)Cc1ccccc1)C(=O)N1CCC(N)(C(=O)O)C1 (stereo partly shown) [Compound 134] (H-[dF][dF][dAla(cPr)][dR]-{Pyrrolidino(3-NH2-3-COOH)}) |  |  | 8.63 | 7.90 |  |  |
| COC(=O)C1(N)CCN(C(=O)[C@@H](CCCCN)NC(=O)[C@@H](CC(C)C)NC(=O)[C@@H]2Cc3ccccc3CN2C(=O)[C@H](N)Cc2ccccc2)C1 (stereo partly drawn) [Compound 146] (H-[dF][Tic][dL][dK]-{Pyrrolidinyl(3-NH2,3-CO2Me)}) |  |  | 6.79 |  | < 5.00 | < 5.00 |
| COC(=O)C1(N)CCN(C(=O)[C@@H](CCCCN)NC(=O)C(CC(C)C)NC(=O)[C@@H](Cc2ccccc2)NC(=O)C2(N)Cc3ccccc3C2)C1 (stereo partly shown) [Compound 156] (H-[Aic][dF][ξL][dK]-{Pyrrolidinyl(3-NH2,3-CO2Me)}) |  |  | 8.64 |  | 5.27 | < 5.00 |
| COC(=O)C1(N)CCN(C(=O)[C@@H](CCCCN)NC(=O)C(CC(C)C)NC(=O)[C@@H](Cc2ccccc2)NC(=O)C2(N)Cc3ccccc3C2)CC1 (stereo partly shown) [Compound 158] (H-[Aic][dF][ξL][dK]-{Piperidin1yl(4-NH2,4-CO2Me)}) |  |  | 9.05 |  | 5.27 | < 5.00 |
| COC(=O)C1(N)CCN(C(=O)[C@@H](CCCCN)NC(=O)[C@@H](CC(C)C)NC(=O)[C@@H](Cc2ccccc2)NC(=O)[C@H]2Cc3ccccc3CN2)C1 (stereo partly drawn) [Compound 168] (H-[dTic][dF][dL][dK]-{Pyrrolidinyl(3-NH2,3-CO2Me)}) | 5.62 | < 5.00 | 8.37 |  |  |  |
| CC(C)C[C@@H](NC(=O)[C@@H](Cc1ccccc1)NC(=O)[C@H]1Cc2ccccc2CN1)C(=O)N[C@H](CCCCN)C(=O)N1CCC(N)(C(=O)O)C1 (stereo partly drawn) [Compound 169] (H-[dTic][dF][dL][dK]-{Pyrrolidino(3-NH2-3-COOH)}) |  |  |  | 6.78 |  |  |
| COC(=O)C1(N)CCN(C(=O)[C@@H](CCCCN)NC(=O)[C@@H](CC(C)C)NC(=O)[C@@H](Cc2ccccc2)NC(=O)[C@H](N)Cc2ccc(F)cc2)C1 (stereo partly shown) [Compound 181] |  |  |  | 8.06 |  |  |
| COC(=O)C1(N)CCN(C(=O)[C@@H](CCCCN)NC(=O)[C@@H](CC(C)C)NC(=O)[C@@H](Cc2ccccc2)NC(=O)[C@H](N)Cc2ccc(F)cc2)CC1 [Compound 184] |  |  |  | 8.20 |  |  |
